Source: patent US12227495B2, “Herbicidal compounds” (SYNGENTA CROP PROTECTION AG, priority 2018, dated 2025)

How the values were obtained:
Assay type in all cases: in vivo
[1] = system: Setaria faberi (SETFA); assay: Pre-emergence herbicide test, glasshouse, percentage damage; settings: rate 1000 g/ha, evaluated after 13 days
Method in brief: (§1)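 Pot-grown plants were sprayed at 500 g/ha unless otherwise stated, in acetone/water (50:50) with 0.5% Tween 20. Pre-emergence spraying was 1 day after sowing and post-emergence after 8 days, in a glasshouse at 24/16° C, 14 h light, 65% humidity. Percentage damage was scored 13 days later on a 1–5 scale (5=81-100%).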

[2] = system: Lolium perenne (LOLPE); assay: as above; settings: rate 1000 g/ha, evaluated after 13 days
Method in brief: as §1

[3] = system: Ipomoea hederacea (IPOHE); assay: as above; settings: rate 1000 g/ha, evaluated after 13 days
Method in brief: as §1

[4] = system: Solanum nigrum (SOLNI); assay: as above; settings: rate 1000 g/ha, evaluated after 13 days
Method in brief: as §1

[5] = system: Amaranthus retoflexus (AMARE); assay: as above; settings: rate 1000 g/ha, evaluated after 13 days
Method in brief: as §1

[6] = system: Echinochloa crus-galli (ECHCG); assay: as above; settings: rate 1000 g/ha, evaluated after 13 days
Method in brief: as §1

[7] = system: Setaria faberi (SETFA); assay: Post-emergence herbicide test, glasshouse, percentage damage; settings: 1000 g/ha, evaluated after 13 days
Method in brief: as §1

[8] = system: Lolium perenne (LOLPE); assay: as above; settings: 1000 g/ha, evaluated after 13 days
Method in brief: as §1

[9] = system: Ipomoea hederacea (IPOHE); assay: as above; settings: 1000 g/ha, evaluated after 13 days
Method in brief: as §1

[10] = system: Solanum nigrum (SOLNI); assay: as above; settings: 1000 g/ha, evaluated after 13 days
Method in brief: as §1

[11] = system: Amaranthus retoflexus (AMARE); assay: as above; settings: 1000 g/ha, evaluated after 13 days
Method in brief: as §1

[12] = system: Echinochloa crus-galli (ECHCG); assay: as above; settings: 1000 g/ha, evaluated after 13 days
Method in brief: as §1

SMILES	Pre-emergence Test SETFA percentage damage (five point scale) [1]	Pre-emergence Test LOLPE percentage damage (five point scale) [2]	Pre-emergence Test IPOHE percentage damage (five point scale) [3]	Pre-emergence Test SOLNI percentage damage (five point scale) [4]	Pre-emergence Test AMARE percentage damage (five point scale) [5]	Pre-emergence Test ECHCG percentage damage (five point scale) [6]	percentage damage caused to the plant, SETFA [7]	percentage damage caused to the plant, LOLPE [8]	percentage damage caused to the plant, IPOHE [9]	percentage damage caused to the plant, SOLNI [10]	percentage damage caused to the plant, AMARE [11]	percentage damage caused to the plant, ECHCG [12]
N#Cc1cccc(Oc2ncc(Cl)cc2F)c1-n1cc(C(F)(F)F)cn1 [Compound A33, 3-[(5-chloro-3-fluoro-2-pyridyl)oxy]-2-[4-(trifluoromethyl)pyrazol-1-yl]benzonitrile]	5 (5=81-100%)	4 (4=61-80%)	2 (2=21-40%)	5 (5=81-100%)	5 (5=81-100%)	5 (5=81-100%)	5 (5=81-100%)	5 (5=81-100%)	5 (5=81-100%)	5 (5=81-100%)	5 (5=81-100%)	5 (5=81-100%)
N#Cc1cccc(Oc2ncc(F)cc2F)c1-n1cc(C(F)(F)F)cn1 [Compound A34]	5 (5=81-100%)	5 (5=81-100%)	5 (5=81-100%)	5 (5=81-100%)	5 (5=81-100%)	5 (5=81-100%)	5 (5=81-100%)	5 (5=81-100%)	5 (5=81-100%)	5 (5=81-100%)	5 (5=81-100%)	5 (5=81-100%)
Fc1cc(Cl)cnc1Oc1cccc(F)c1-c1ncc(C(F)F)o1 [Compound A35]	5 (5=81-100%)	1 (1=0-20%)	1 (1=0-20%)	5 (5=81-100%)	3 (3=41-60%)	5 (5=81-100%)	4 (4=61-80%)	1 (1=0-20%)	2 (2=21-40%)	5 (5=81-100%)	5 (5=81-100%)	1 (1=0-20%)
COc1cccc(Oc2ncc(Cl)cc2F)c1-n1cc(C(F)(F)F)cn1 [Compound A36, 5-chloro-3-fluoro-2-[3-methoxy-2-[4-(trifluoromethyl)pyrazol-1-yl]phenoxy]pyridine]	5 (5=81-100%)	3 (3=41-60%)	5 (5=81-100%)	5 (5=81-100%)	5 (5=81-100%)	5 (5=81-100%)	5 (5=81-100%)	4 (4=61-80%)	2 (2=21-40%)	5 (5=81-100%)	5 (5=81-100%)	4 (4=61-80%)
N#Cc1cc(Cl)cnc1Oc1cccc(F)c1-c1cc(C(F)F)no1 [Compound A37]	5 (5=81-100%)	5 (5=81-100%)	5 (5=81-100%)	5 (5=81-100%)	5 (5=81-100%)	5 (5=81-100%)	5 (5=81-100%)	4 (4=61-80%)	5 (5=81-100%)	5 (5=81-100%)	5 (5=81-100%)	4 (4=61-80%)
O=[N+]([O-])c1cc(Cl)cnc1Oc1cccc(F)c1-c1cc(C(F)F)no1 [Compound A38]	1 (1=0-20%)	1 (1=0-20%)	1 (1=0-20%)	1 (1=0-20%)	4 (4=61-80%)	1 (1=0-20%)	1 (1=0-20%)	1 (1=0-20%)	1 (1=0-20%)	5 (5=81-100%)	5 (5=81-100%)	1 (1=0-20%)
CS(=O)(=O)c1cnc(Oc2cccc(F)c2-c2cc(C(F)F)no2)c(F)c1 [Compound A39]	1 (1=0-20%)	1 (1=0-20%)	1 (1=0-20%)	1 (1=0-20%)	5 (5=81-100%)	1 (1=0-20%)	1 (1=0-20%)	1 (1=0-20%)	1 (1=0-20%)	3 (3=41-60%)	3 (3=41-60%)	1 (1=0-20%)
CS(=O)(=O)c1ccc(Oc2cccc(F)c2-c2cc(C(F)F)no2)nc1 [Compound A40]	1 (1=0-20%)	1 (1=0-20%)	1 (1=0-20%)	1 (1=0-20%)	2 (2=21-40%)	1 (1=0-20%)	1 (1=0-20%)	1 (1=0-20%)	1 (1=0-20%)	4 (4=61-80%)	3 (3=41-60%)	1 (1=0-20%)
Fc1cccc(Oc2ccc(Br)cn2)c1-c1cc(C(F)F)no1 [Compound A41]	5 (5=81-100%)	5 (5=81-100%)	3 (3=41-60%)	5 (5=81-100%)	5 (5=81-100%)	5 (5=81-100%)	5 (5=81-100%)	5 (5=81-100%)	5 (5=81-100%)	5 (5=81-100%)	5 (5=81-100%)	5 (5=81-100%)
